# Entries after “also recorded” stand apart in the source; their conditions may differ.
# Experiments:
# Format in all cases: cell-based, Staphylococcus aureus
# S. aureus RN4220 = experiment: Phage infection (PFUs) of S. aureus grown with tunicamycin; settings: increasing tunicamycin
# [1] = system: WTA biosynthesis in S. aureus RN4220; experiment: PAGE analysis of WTAs isolated from S. aureus RN4220 grown with tunicamycin; settings: increasing but sub-lethal concentrations of tunicamycin
# S. aureus [2] = experiment: Two dimensional drug interaction analysis between tunicamycin and targocil; settings: normally inhibitory concentrations of targocil; 18 h at 30° C.
# Protocol: (A) Targocil MIC data for a panel of Gram-positive strains, including MRSA clinical isolates B5271 and 5340A. Growth was monitored in triplicate after 12 h at 28° C. using optical density. (B) Two dimensional drug interaction analysis between tunicamycin and targocil grown for 18 h at 30° C. […] At higher concentrations, tunicamycin is toxic because it inhibits cell wall biosynthesis. […] Varying concentrations of drug were added to […] of S. aureus RN4220 after 5 h and cell count was monitored over time at 30° C. […] Cells were grown at 28° C. for 12 h and monitored for growth using optical density (OD600). Data were normalized to the DMSO controls for each strain. (E) Two classes of mutants were examined: phage resistant (m1 3) and phage sensitive (m4-5).
# Having discovered targocil, the next challenge was to identify its target in S. aureus. We first used the natural product tunicamycin to verify that targocil requires the presence of a functional WTA pathway. Although toxic at high concentrations, tunicamycin is a selective TarO inhibitor that abolishes WTA expression at sublethal concentrations. (Hancock I C, Wiseman G, & Baddiley J (1976) Febs Letters 69:75-80) We predicted that tunicamycin should antagonize targocil by preventing flux into the WTA biosynthetic pathway. […]
# S. aureus [3] = experiment: SAR of targocil analogs: MIC and mutation frequency
# Excerpt: Based on the discovery of targocil as an inhibitor of WTA biosynthesis, further studies of the antibiotic were undertaken to elucidate the basis of its activity and to discover other antibiotics based on the structure of targocil. The goal for the initial SAR of targocil was to alter only the A ring to determine modifications that would improved potency as measured by MIC. We developed synthetic chemistry schemes to modify the targocil scaffold and, initially, nineteen different derivatives of targocil were made. […] Modifications to the D ring appear particularly promising. Finally, the optimized compounds from this second round of SAR could then be used to discover modifications to the amine group that could be tolerated.
Molecule,phage infection (PFUs) (S. aureus RN4220),WTA biosynthesis (PAGE of isolated WTAs) [1],antagonism of targocil by tunicamycin (S. aureus [2]),"mutation frequency, relative to targocil (S. aureus [3]; in vitro)","potency as measured by MIC, relative to targocil (S. aureus [3]; two methoxy groups at R1 and R2 of ring A)"
tunicamycin,dose-dependent decrease,dose-dependent decrease,complete protection; also recorded: antagonizes the lethal effect of targocil,–,–
"CCN(CC)c1nc2c(S(=O)(=O)c3ccccc3)nnn2c2cc(OC)c(OC)cc12 [Compound 4-22-7, N,N-Diethyl-7,8-dimethoxy-3-(phenylsulfonyl)-[1,2,3]triazolo[1,5-a]quinazolin-5-amine]",–,–,–,better,more potent

# — patent publication US8598342B2, “Methods and compounds for antimicrobial intervention” (President and Fellows of Harvard College, priority 2008, dated 2013)
